The target in data set [1] is T1, α1BAR-α2C(L^45.52) chimera (V197^45.52→L) (Homo sapiens, UniProt P35368, V197L).
T1 sequence (P35368 35-520 V197L): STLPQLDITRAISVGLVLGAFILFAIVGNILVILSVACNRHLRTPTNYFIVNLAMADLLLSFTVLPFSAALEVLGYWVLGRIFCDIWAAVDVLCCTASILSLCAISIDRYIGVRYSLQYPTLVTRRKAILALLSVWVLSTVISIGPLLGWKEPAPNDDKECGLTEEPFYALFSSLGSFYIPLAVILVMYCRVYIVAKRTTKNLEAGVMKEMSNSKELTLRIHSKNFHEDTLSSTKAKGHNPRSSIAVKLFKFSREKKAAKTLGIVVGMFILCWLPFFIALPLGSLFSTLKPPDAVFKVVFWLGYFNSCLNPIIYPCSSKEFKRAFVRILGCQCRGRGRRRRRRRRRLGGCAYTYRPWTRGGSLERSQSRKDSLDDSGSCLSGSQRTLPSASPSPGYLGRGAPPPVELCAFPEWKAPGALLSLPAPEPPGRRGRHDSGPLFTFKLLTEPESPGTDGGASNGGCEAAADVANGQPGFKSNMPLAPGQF
The experiment in a line: HTRF ligand-binding assay on whole transfected HEK293T/17 cells (QAPB saturation; competition with QAPB tracer).

A further data set deals with T2, α1BAR-α2C(YLLY) chimera (Homo sapiens, UniProt P35368, A122L/L314Y/V197L/W121Y).
T2 sequence (P35368 35-520 W121Y/A122L/V197L/L314Y): T1 sequence (P35368 35-520 V197L) with W87Y, A88L, L280Y
Described as above.

Data set [2] addresses α1BAR-α2C(YLLY;ECL2) chimera (Homo sapiens, UniProt P35368, A122L/DEL188-193/E186Y/E194Q/E199D/F202W/G179P/I178F/INS181VSLYRQP/K185A/L182D/L314Y/P201T/T198N/V197L/W121Y/W184A). The data set is described as above.
Data set [3] has as its target T3, α1BARXTAL (stabilized α1BAR with DARPin D12 fusion) (Homo sapiens, UniProt P35368, D191Y/E194V/F334L/G183V/I116T/P349L/S150Y/S168C/S95C/T295M/V124M/V333L).
T3 construct: deletion of N-terminal residues M1–N34 and intracellular loop three (ICL3) residues K249–L283, and fusion of DARPin D12[43],[68],[69] to residue C350^7.55; expressed in transfected cells; host or cells: HEK293T/17
The experiment in a line: HTRF competition ligand-binding assay on whole transfected HEK293T/17 cells (QAPB tracer).

The next data set concerns the target T4, α1BARXTAL (Homo sapiens, UniProt P35368, D191Y/DEL249-283/E194V/F334L/G183V/I116T/P349L/S150Y/S168C/S95C/T295M/V124M/V333L).
T4 construct: deletion of N-terminal residues M1–N34 and intracellular loop three (ICL3) residues K249–L283, and fusion of DARPin D12[43],[68],[69] to residue C350^7.55; MBP (N, cleaved yes); His6-tag (N, cleaved yes); DARPin D12, modified (ΔS1,D2); L3K, G4A, K5R, A13K; thioredoxin A (TrxA) (C, cleaved yes); His10-tag (C, cleaved yes); made in house; host or cells: E. coli BL21 (fhuA2 deletion)
The experiment in a line: CPM-based thermostability assay of ligand-bound receptor. Conditions: cyclazosin-bound α1BARXTAL.

Data set [4] addresses rat cerebral cortex tissue containing all three α2AR subtypes. Details: method as in Giardinà, D. et al., J. Med. Chem. 39, 4602-4607 (1996). Conditions: ref Giardinà, D. et al., J. Med. Chem. 39, 4602-4607 (1996); cited from earlier work.
On the set-up of data set [5]: method as in ref 49 (a number printed in a supplementary file, which may have a reference list of its own: not looked up in the article's list). Conditions: computationally estimated; cited from earlier work.
Another data set addresses T5, wild-type α1BAR (Homo sapiens, UniProt P35368).
T5 sequence (P35368 35-520 limits assumed): T1 sequence (P35368 35-520 V197L) with L163V
The experiment in a line: HTRF ligand-binding assay on whole transfected HEK293T/17 cells (QAPB saturation; competition with QAPB tracer).

Data set [6] concerns the target α1BAR-α2C(YLLY;N^2.64) chimera (Homo sapiens, UniProt P35368, A122L/L105N/L314Y/V197L/W121Y). Described as above.

Changes are numbered by the printed parent chain. Values joined by “and” are separate entries in the source; they are usually repeats but may differ in a detail not shown here. Identical values can stand only once. Like-named read-outs stand apart in the source and are kept apart here.

T3 sequence (P35368 with tags, fused parts or gaps with the stated changes): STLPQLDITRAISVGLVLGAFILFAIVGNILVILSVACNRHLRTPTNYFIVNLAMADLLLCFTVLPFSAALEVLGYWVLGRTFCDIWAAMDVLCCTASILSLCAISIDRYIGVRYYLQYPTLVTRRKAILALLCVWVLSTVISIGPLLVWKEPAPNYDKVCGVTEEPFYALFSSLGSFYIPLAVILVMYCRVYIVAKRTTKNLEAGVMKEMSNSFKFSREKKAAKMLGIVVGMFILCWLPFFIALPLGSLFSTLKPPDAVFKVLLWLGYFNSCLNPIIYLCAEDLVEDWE
Sequence of α1BAR-α2C(YLLY;N^2.64) chimera (P35368 35-520 L105N/W121Y/A122L/V197L/L314Y): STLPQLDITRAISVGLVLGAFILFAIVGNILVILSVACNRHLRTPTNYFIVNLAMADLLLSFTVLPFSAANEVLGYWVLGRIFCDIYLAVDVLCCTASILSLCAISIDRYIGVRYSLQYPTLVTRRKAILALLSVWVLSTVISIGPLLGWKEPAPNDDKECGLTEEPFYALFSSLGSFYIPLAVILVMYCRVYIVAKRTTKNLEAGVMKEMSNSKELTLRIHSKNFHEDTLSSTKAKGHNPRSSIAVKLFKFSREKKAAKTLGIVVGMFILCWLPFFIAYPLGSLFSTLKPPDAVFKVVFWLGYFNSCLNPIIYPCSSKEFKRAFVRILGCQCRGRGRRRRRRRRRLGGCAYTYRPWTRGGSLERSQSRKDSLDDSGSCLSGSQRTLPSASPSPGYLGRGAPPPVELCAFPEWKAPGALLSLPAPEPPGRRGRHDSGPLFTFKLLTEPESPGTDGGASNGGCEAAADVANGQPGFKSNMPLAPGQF
Sequence of α1BAR-α2C(YLLY;ECL2) chimera (P35368 with tags, fused parts or gaps with the stated changes): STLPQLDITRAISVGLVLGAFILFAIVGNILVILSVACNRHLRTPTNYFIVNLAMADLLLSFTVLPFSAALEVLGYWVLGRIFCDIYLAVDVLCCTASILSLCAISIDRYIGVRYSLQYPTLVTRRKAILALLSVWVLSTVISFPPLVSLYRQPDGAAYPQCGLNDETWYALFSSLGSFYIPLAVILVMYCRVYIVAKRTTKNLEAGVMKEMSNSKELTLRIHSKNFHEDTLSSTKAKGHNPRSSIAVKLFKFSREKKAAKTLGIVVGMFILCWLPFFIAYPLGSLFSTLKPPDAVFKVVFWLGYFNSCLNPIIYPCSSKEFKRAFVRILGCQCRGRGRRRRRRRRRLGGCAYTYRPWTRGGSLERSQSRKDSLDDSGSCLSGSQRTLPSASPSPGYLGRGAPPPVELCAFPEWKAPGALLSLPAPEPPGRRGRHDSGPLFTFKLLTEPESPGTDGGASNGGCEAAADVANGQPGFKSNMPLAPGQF
T4 sequence (P35368 with tags, fused parts or gaps with the stated changes): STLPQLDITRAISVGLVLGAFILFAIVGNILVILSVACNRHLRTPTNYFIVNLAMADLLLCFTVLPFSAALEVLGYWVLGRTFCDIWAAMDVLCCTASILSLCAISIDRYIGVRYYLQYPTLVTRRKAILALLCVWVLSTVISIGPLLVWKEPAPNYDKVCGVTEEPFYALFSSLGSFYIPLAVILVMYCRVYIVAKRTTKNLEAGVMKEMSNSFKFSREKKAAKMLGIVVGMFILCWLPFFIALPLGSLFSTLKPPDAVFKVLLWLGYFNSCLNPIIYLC

Take `COc1cc2nc(N3CCN(C(=O)c4ccco4)[C@H]4CCCC[C@H]43)nc(N)c2cc1OC` (relative stereo) [cyclazosin, [4-(4-amino-6,7-dimethoxyquinazolin-2-yl)-cis-octahydroquinoxalin-1-yl] furan-2-ylmethanone]: in data set [1] (V197^45.52→L vs wild-type α1BAR), the “effect of the substitution on affinity” value is listed as “negligible”. The Ki in [1] (pKi (competition binding), competition with 2 nM QAPB tracer, whole cells, mean) is 1.1 nM; on α1BAR-α2C(YLLY) chimera (pKi (competition binding), competition with 50 nM QAPB tracer, whole cells, mean) it was 3.72 nM; in data set [2] it was 2.69 nM; in data set [3] (competition with 2 nM QAPB tracer, whole cells, read-out: Ki), 6.17 nM; in data set [3] (construct α1BARXTAL, competition with Cyclazosin against QAPB tracer, HTRF, one value per experiment date, read-out: Calculated pKi values (converted)) it was 11 nM and 3.94 nM and 5.44 nM; at wild-type α1BAR (Ki, competition with 2 nM QAPB tracer, whole cells), 1.02 nM. The Ki in [6] was 7.24 nM. For the same compound, on α1BAR-α2C(YLLY) chimera (α1BAR-α2C(YLLY) vs wild-type α1BAR), the “weaker affinity compared to wild-type α1BAR” value was around 4 fold. In addition, the “apparent Tm of the ligand-bound receptor” value on α1BARXTAL was “≈ 71 °C”. The “affinity as pK value (RLBA)” value in data set [4] is 6.17. In addition, the pKa in data set [5] is listed as 9. Also, at wild-type α1BAR (ratio of affinities α1BAR vs α2CAR), the “higher affinity for wild-type α1BAR compared to α2CAR” value is around 330 fold.

The values are drawn from article PMC8770593 (Nature Communications, 2022).
